Experimental data taken from patent publication US20250263370A1 (Tay Therapeutics Limited, priority 2022, published 2025).
Where two headings read alike, the source gives them in different places.

Experiments:
[1] = Intrinsic clearance in liver microsomes, mouse; assay type: in vitro ADME; details: pH 7.4, Method 2, read-out: Half-Life (T1/2) (min), Mouse
Experimental: From stock solution of compound on 10 mM DMSO, a working solution of 0.1 mM is prepared by diluting the compound in DMSO. 6.25 μL of a 20 mg/mL solution of microsomes in PBS pH 7.4 buffer is added to 216.25 μL PBS pH 7.4 buffer (final microsome concentration—0.5 mg/mL). 25 μL of 10 mM solution of NADPH in PBS pH 7.4 buffer is added to the incubations (final NADPH concentration—1 mM). The mixture is pre-warmed to 37° C. for 10 minutes. 2.5 μL of test compound working solution is added (final compound concentration—1 μM with 1% DMSO). Aliquots of 30 μL are taken from the reaction solution at 0.5, 5, 15, 30 and 60 minutes. The reaction was stopped by the addition of 5 volumes of cold acetonitrile with IS (100 nM alprazolam, 200 nM caffeine and 100 nM tolbutamide). Samples were centrifuged at 3, 220 g for 40 minutes. Aliquots of 100 μL of the supernatant are mixed with 100 μL of ultra-pure H2O and used for LC-MS/MS analysis. The percent compound remaining at each time point is calculated with respect to that of the 0.5 min sample. The data are analysed to calculate half-life. Control experiments are run without NADPH and blank samples are prepared using DMSO without the test compound.
A 50 mM stock solution (in DMSO) is prepared for the compound. From the stock solution, a working solution of 0.5 mM is prepared by diluting the compound in DMSO. This concentration of working solution is prepared considering a final concentration of 1 uM with 0.1% DMSO. The compound (1 μL of working solution) is spiked in PBS with pH 7.4 ([…]) at a concentration of 1 μM. Subsequently, 110 μL of 10 mM NADPH is added (as a co-factor). The sample is incubated at 37° C. for 15 min. Following this, pre-warmed liver microsomes (27.5 μL; final protein conc. 0.5 mg/mL) are added. The samples are then incubated at 37° C. Aliquots of samples are withdrawn at 0, 5, 15, 30, 45 and 60 min. The reaction is stopped by using chilled acetonitrile containing internal standard. The samples are centrifuged, and the supernatants analysed by LC-MS/MS. The percent compound remaining at each time point is calculated with respect to that of the 0 min sample. The data are then analysed to calculate half-life and intrinsic clearance (CLint). Control experiments are run without NADPH and blank samples are prepared using DMSO without the test compound.

[2] = molecular target: BRD4 BD1 (Homo sapiens (Human), UniProt O60885); assay: NanoBRET bromodomain assay, NanoLuc-BRD4-BD1 fusion in HEK293 cells; assay type: cell-based; details: top concentration 10 μM
[3] = molecular target: BRD4 BD2 (Homo sapiens (Human), UniProt O60885); assay: NanoBRET bromodomain assay, NanoLuc-BRD4-BD2 fusion in HEK293 cells; details: for IC50: BRD4 BD2 (IC50), NanoBRET, HEK293 cells, top concentration 10 μM; for Fold selectivity: IC50 for BRD4 BD1 divided by IC50 for BRD4 BD2, qualitative if an IC50 is at the upper limit;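 as to all read-outs here: tracer displacement BRET read in transfected cells after 2 h compound exposure at 37 °C, signal in milliBRET units corrected against no-tracer background wells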
[4] = test system: IL-17A; assay: IL-17A levels by ELISA in stimulated human peripheral blood mononuclear cells; assay type: cell-based; details: for IC50: Homo sapiens, PBMC; for IC50 for IL-17A relative to GSK620 / Biomarker selectivity (IL-17 vs. CXCL10): human PBMC; for IC50 for IL-17A relative to GSK620: 72 hours; for Biomarker selectivity (IL-17 vs. CXCL10): from mean IC50
Experimental: (§1) CD2, CD3, and CD28 antibody-coated beads from the T-cell activation/expansion kit (Miltenyi Biotec) were added to the PBMC at a bead-to-cell ratio of 1:2.
(§2) The mixture of PBMCs and beads were seeded into the wells of the round-bottom 96-well plate at a concentration of 2×10^5 cells/well in a total volume of 200 μL. The cells were cultured for 72 hours at 37° C. and 5% CO2 and then supernatants were collected and IL-17A and IL-22 levels were measured by ELISA. […] The final compound concentration ranged from 30,000 nM to 0.005 nM and the final DMSO concentration per well was 0.3%. PBMCs were seeded at approximately 2×10^5 cells/well in the wells of the 96-well tissue culture plate in a total volume of 190 μL. The plate was incubated for 1 hour at 37° C. and 5% CO2. […] The cells were then cultured for 24 hours at 37° C. and 5% CO2. The supernatant was collected and CXCL10 levels were measured by ELISA.

[5] = test system: CXCL10; assay: CXCL10 levels by ELISA in IFN-γ stimulated human peripheral blood mononuclear cells; assay type: cell-based; details: human PBMC
Experimental: The impact of Examples 23, 80, and 101 on IL-17A, IL-22, and CXCL10 levels was analyzed in cryopreserved human peripheral blood mononuclear cells (PBMC) by ELISA. […] For IL-17A and IL-22 assays, Examples 23, 80, and 101 were serially diluted from 10 mM in DMSO and further diluted in assay media to 100× the required final concentration, of which, 2 μL was added per well to a round-bottom 96-well tissue culture plate where the final DMSO concentration per well was 0.1%. CD2, CD3, and CD28 antibody-coated beads from the T-cell activation/expansion kit (Miltenyi Biotec) were added to the PBMC at a bead-to-cell ratio of 1:2.
The mixture of PBMCs and beads were seeded into the wells of the round-bottom 96-well plate at a concentration of 2×10^5 cells/well in a total volume of 200 μL. The cells were cultured for 72 hours at 37° C. and 5% CO2 and then supernatants were collected and IL-17A and IL-22 levels were measured by ELISA. For the CXCL10 assay, Examples 23, 80, and 101 were serially diluted from 10 mM in DMSO and further diluted in assay media to 100× the required final concentration, of which 2 μL was added per well to a 96-well tissue culture plate. The final compound concentration ranged from 30,000 nM to 0.005 nM and the final DMSO concentration per well was 0.3%. PBMCs were seeded at approximately 2×10^5 cells/well in the wells of the 96-well tissue culture plate in a total volume of 190 μL. The plate was incubated for 1 hour at 37° C. and 5% CO2. The cells were then stimulated with IFN-γ (15 ng/mL final concentration) in a volume of 10 μL. The cells were then cultured for 24 hours at 37° C. and 5% CO2. The supernatant was collected and CXCL10 levels were measured by ELISA.

[6] = test system: IL-22; assay: IL-22 levels by ELISA in stimulated human peripheral blood mononuclear cells; assay type: cell-based; details: for IC50: Homo sapiens, PBMC; for IC50 for IL-22 relative to GSK620 / Biomarker selectivity (IL-22 vs. CXCL10): human PBMC; for IC50 for IL-22 relative to GSK620: 72 hours; for Biomarker selectivity (IL-22 vs. CXCL10): from mean IC50
Experimental: as §1, §2

[7] = Test Subject 1, read-out: IL-17A IC50
[8] = Test Subject 3, read-out: IL-17A IC50
[9] = mean of test subjects, read-out: IL-17A IC50 Mean
[10] = Test Subject 2, read-out: CXCL10 IC50
[11] = Test Subject 3, read-out: CXCL10 IC50
[12] = mean of test subjects, read-out: CXCL10 IC50 Mean
[13] = Test Subject 2, read-out: IL-22 IC50
[14] = Test Subject 3, read-out: IL-22 IC50
[15] = mean of test subjects, read-out: IL-22 IC50 Mean

| SMILES | half-life at 1 μM [1] | IC50 [2] | IC50 [3] | Fold selectivity [3] | also measured |
| --- | --- | --- | --- | --- | --- |
| CNC(=O)c1[nH]c(C(=O)NCCC(F)(F)F)cc1O[C@@H](C)c1ccccc1 [Example 112, (S)—N^2-methyl-3-(1-phenylethoxy)-N^5-(3,3,3-trifluoropropyl)-1H-pyrrole-2,5-dicarboxamide] | > 60 min | ≥ 10000 nM | 200 to 1000 nM | X (Fold >2 and ≤50) |  |
| CNC(=O)c1[nH]c(C(=O)N[C@@H]2CCC(F)(F)C2)cc1O[C@@H](C)c1ccccc1 [Example 111, N^5-((R)-3,3-difluorocyclopentyl)-N^2-methyl-3-((S)-1-phenylethoxy)-1H-pyrrole-2,5-dicarboxamide] | > 60 min | ≥ 10000 nM | 200 to 1000 nM | X (Fold >2 and ≤50) |  |
| CNC(=O)c1[nH]c(C(=O)NC2CC(F)(F)C2)cc1O[C@@H](C)c1ccccc1 [Example 109, (S)—N^5-(3,3-difluorocyclobutyl)-N^2-methyl-3-(1-phenylethoxy)-1H-pyrrole-2,5-dicarboxamide] | > 60 min | ≥ 10000 nM | 200 to 1000 nM | X (Fold >2 and ≤50) |  |
| CNC(=O)c1[nH]c(C(=O)NC23CC(O)(C2)C3)cc1O[C@@H](C)c1ccccc1 [Example 118, (S)—N^5-(3-hydroxybicyclo [1.1.1]pentan-1-yl)-N^2-methyl-3-(1-phenylethoxy)-1H-pyrrole-2,5-dicarboxamide] | > 60 min | ≥ 10000 nM | 50 to 200 nM | XX (Fold >50 and ≤200) |  |
| CNC(=O)c1[nH]c(-c2ncc(C)[nH]2)cc1O[C@@H](C)c1ccccc1 [Example 23, (S)-N-methyl-5-(5-methyl-1H-imidazol-2-yl)-3-(1-phenylethoxy)-1H-pyrrole-2-carboxamide] |  | ≥ 10000 nM | < 50 nM | XXX (Fold >200) | IC50 [4, 7]: 104 nM; IC50 ([4]; Test Subject 2, read-out: IL-17A IC50): 9.6 nM; IC50 [4, 8]: 53.4 nM; IC50 [4, 9]: 24.5 nM; IC50 for IL-17A relative to GSK620 [4]: decreased mean IC50; Biomarker selectivity (IL-17 vs. CXCL10) [4]: >1226 Fold; BRD4 BD2 % Activity Remaining @ 10 uM ([3]; 10 uM, (2) = second batch): 22%; selectivity to induction of CXCL10 relative to IL-17A and IL-22 [5]: showed selectivity to induction of CXCL10 relative to IL-17A and IL-22; IC50 [5, 10]: > 30000 nM; IC50 [5, 11]: > 30000 nM; IC50 [5, 12]: > 30000 nM; IC50 ([6]; Test Subject 1, read-out: IL-22 IC50): 8.5 nM; IC50 [6, 13]: 1.2 nM; IC50 [6, 14]: 4.3 nM; IC50 [6, 15]: 4.7 nM; IC50 for IL-22 relative to GSK620 [6]: decreased mean IC50; Biomarker selectivity (IL-22 vs. CXCL10) [6]: >6429 Fold |
| CNC(=O)c1[nH]c(C(=O)N[C@H]2CC[C@H](O)C2)cc1O[C@@H](C)c1ccccc1 [Example 115, N^5-((1S,3S)-3-hydroxycyclopentyl)-N^2-methyl-3-((S)-1-phenylethoxy)-1H-pyrrole-2,5-dicarboxamide] | > 60 min | ≥ 10000 nM | 50 to 200 nM | XX (Fold >50 and ≤200) |  |
| CNC(=O)c1[nH]c(C(=O)NC23CC(C2)C3)cc1O[C@@H](C)c1ccccc1 [Example 117, (S)—N^5-(bicyclo [1.1.1]pentan-1-yl)-N^2-methyl-3-(1-phenylethoxy)-1H-pyrrole-2,5-dicarboxamide] | > 60 min | ≥ 10000 nM | 50 to 200 nM | XX (Fold >50 and ≤200) |  |
| CNC(=O)c1[nH]c(-c2cnn(C(C)C)c2)cc1O[C@@H](C)c1ccccc1 [Example 80, (S)-5-(1-isopropyl-1H-pyrazol-4-yl)-N-methyl-3-(1-phenylethoxy)-1H-pyrrole-2-carboxamide] |  | ≥ 10000 nM | < 50 nM | XXX (Fold >200) | IC50 [4, 7]: 25.1 nM; IC50 [4, 8]: 187 nM; IC50 [4, 9]: 106 nM; IC50 for IL-17A relative to GSK620 [4]: increased mean IC50; Biomarker selectivity (IL-17 vs. CXCL10) [4]: >283 Fold; selectivity to induction of CXCL10 relative to IL-17A and IL-22 [5]: showed selectivity to induction of CXCL10 relative to IL-17A and IL-22; IC50 ([5]; Test Subject 1, read-out: CXCL10 IC50): > 30000 nM; IC50 [5, 10]: > 30000 nM; IC50 [5, 11]: > 30000 nM; IC50 [5, 12]: > 30000 nM; IC50 [6, 13]: 9.3 nM; IC50 [6, 14]: 30.7 nM; IC50 [6, 15]: 20 nM; IC50 for IL-22 relative to GSK620 [6]: decreased mean IC50; Biomarker selectivity (IL-22 vs. CXCL10) [6]: >1500 Fold |
| CNC(=O)c1[nH]c(C(=O)NC2CC2)cc1O[C@@H](C)c1ccccc1 [Example 106, (S)—N^5-cyclopropyl-N^2-methyl-3-(1-phenylethoxy)-1H-pyrrole-2,5-dicarboxamide] | > 60 min | ≥ 10000 nM | 50 to 200 nM | XX (Fold >50 and ≤200) |  |
